No end group written: not given here.
Key:
[1] = tested on: isogenic phoP mutant of S. typhimurium (strain CS015 phoP102::Tn10d-Cam); assay: agar (plate) diffusion antibacterial assay, clear zones; format: cell-based; settings: phoP mutant (attenuated, avirulent) S. typhimurium; modified plate diffusion assay; result in words, compared with wild-type
From the text: (§1) • Figure 1 provides the consensus structures of mouse cryptdins 1-5 and rat cryptdin-1. Amino acid residues are indicated by single-letter code. Dashed lines are included in mouse cryptdin-4 and rat cryptdin-1 in order to preserve the consensus sequence where these peptides are shorter than other cryptdins. Invariant residues in the enteric cryptdin peptides are boxed. […] Acid extract of jejunum and ileum was chromatographed in 30% acetic acid on a P-60 column. Fractions indicated by the bracket (panel A) were pooled and rechromatographed on the P-60 column (panel B). Cryptdin containing fractions (bracket, panel B) were pooled and further purified by RP-HPLC on 0.46 x 25 cm Vydac C-18 column. Water-acetonitrile gradient elution (--) using 0.13% (vol/vol) HFBA as modifier was used to purify cryptdins 1-5. […] Samples of low molecular weight enteric peptides obtained by P-60 gel filtration (Figure 2, [panel B]) and purified cryptdins were electrophoresed on a 12.5% acid-urea gel and stained with formalin-containing Coomassie Blue. […] After incubation at 37°C for 18 hours, antimicrobial activity was evaluated by measurement of the diameters of the clear zones. […]
(§2) The antimicrobial, or antibacterial, activity of cryptdins can be measured against various pathogens. […]

[2] = tested on: wild-type Salmonella typhimurium (ATCC 10428); assay: as above; format: cell-based; settings: wild-type S. typhimurium; modified plate diffusion assay; result in words, compared with the phoP mutant
From the text: as §1, §2

[3] = tested on: phoP mutant S. typhimurium; settings: compared to wild-type parent strains; Fields et al., Miller et al. 1990; cited from earlier work

NP-1: rabbit defensin (VVCACRRALCLPRERRAGFCRIRGRIHPLCCRR; ends and bridges not checked; cysteine pairing not given here; UniProt P01376 63-95, looked up)
antimicrobial activity [1]: quite similar | antimicrobial activity [2]: quite similar | sensitivity of mutants in the phoP locus [3]: particularly sensitive

NP-2: rabbit defensin (VVCACRRALCLPLERRAGFCRIRGRIHPLCCRR; ends and bridges not checked; cysteine pairing not given here; UniProt P01377 63-95, looked up)
sensitivity of mutants in the phoP locus [3]: particularly sensitive

— patent EP0642348B1, “[…] PEPTIDES AND METHODS OF THEIR USE” (THE REGENTS OF THE UNIVERSITY OF CALIFORNIA, priority 1992, dated 2000)
